The values that follow come from patent US4031077A, “Antibacterial 3-phosphono penams” (priority 1976, dated 1977).

For one assay, the system named is Staph. aureus. It counts as cell-based, Staphlococcus aureus.
Another assay concerns Strep. equi. In words: microbe, parasite or virus in culture. Particulars: 10^5-10^6 cells, 37° C., anaerobic, sodium salt, Test No. 1-2. It counts as cell-based, Streptococcus equis.
In a further assay the test system is Strep. zoo. It is filed as cell-based, Streptococcus zoobacter. As to conditions: Strep. zoo. strain 02H001, brain-heart infusion agar, 10^5-10^6 cells, 37° C., anaerobic, sodium salt, Test No. 1-3.

Several values for one entry are separate records, joined by “and”; a condition that tells them apart may be missing. Identical values can stand only once. Counter-ions that a name gives are not always drawn. Like-named read-outs stand apart in the source and are kept apart here.

As for `COP(=O)(O)C1N2C(=O)C(NC(=O)COc3ccccc3)C2SC1(C)C` (stereo not drawn) [6-(2-Phenoxyacetamido)-2,2-dimethyl-3-(0-methylphosphono)penam, sodium salt], the “MIC (minimal inhibitory concentration)” value with Staph. aureus (Staph. aureus strain 01A006; brain-heart infusion agar, 10^5-10^6 cells, 37° C., anaerobic; sodium salt; Test No. 1-3) is 200 µg/mL. For the same compound, in the assay with Strep. equi. (Streptococcus equi, Strep. equi. strain 02I001, brain-heart infusion agar, read-out: MIC (minimal inhibitory concentration)), the MIC amounted to 200 µg/mL.

With `CC1(C)S[C@@H]2C(NC(=O)COc3ccccc3)C(=O)N2C1P(=O)(O)O.[Na]` (stereo partly drawn) [6-(2-Phenoxyacetamido)-2,2-dimethyl-3-phosphonopenam, sodium salt], the “MIC (minimal inhibitory concentration)” value was greater than 200 µg/mL in the assay with Staph. aureus (Staph. aureus strain 01A005, brain-heart infusion agar, 10^5-10^6 cells, 37° C., anaerobic, sodium salt, Test No. 1-3); greater than 200 µg/mL in the assay on Staph. aureus (Staph. aureus strain 01A006, brain-heart infusion agar, 10^5-10^6 cells, 37° C., anaerobic, sodium salt, Test No. 1-3); 100 µg/mL in the assay with Strep. equi. (Strep. equi. strain 02I001, brain-heart infusion agar); 100 µg/mL and 200 µg/mL in the assay on Strep. zoo..
